Laboratory results published in article PMC5418359, “Topical Ophthalmic Formulation of Trichostatin A and SurR9-C84A for Quick Recovery Post-alkali Burn of Corneal Haze” (Frontiers in Pharmacology, 2017).

How the values were obtained:
[1] = Ocular and systemic pharmacokinetics of TSA after topical application; conditions: for Concentration of TSA in Aqueous humor / Concentration of TSA in Conjunctiva / Concentration of TSA in Cornea / Concentration of TSA in Plasma / Concentration of TSA in Tear fluid: mean ±SD; for AUC0-8 / AUC0-∞ / Cmax / Tmax / t1/2: rat, topical application
Description: Pharmacokinetic analysis was done using the HPLC System for the levels of TSA in eye tissue and plasma samples was measured using PK methods. PK estimated using standard measurements for maximum concentration (Cmax), time to reach Cmax (Tmax), area under the concentration–time curve (AUC), elimination rate constant (K), elimination half-life (t1/2), apparent clearance (CL/F), apparent volume of distribution (Vd/F).

[2] = tested on: conjunctival layer and corneal matrix; assay: H&E histology of corneal segments, rat alkali burn model; assay type: in vivo; conditions: 1 M NaOH 1 min, topical treatment 40 min
Description: After the completion of the study, all tissues that required to be examined (eyes, brain, kidneys, liver, spleen, heart and lungs) were isolated. The cornea was carefully separated from the eye without damaging it and washed using phosphate buffer saline (PBS). Tissues were fixed using 4% paraformaldehyde (PF) overnight at 4°C and then washed in PBS. The tissue segments were dehydrated in graded ethanol, embedded in paraffin and 5–7 μm thick sections were cut using a microtome. Sections were collected on poly-lysine coated slides using the Leica cryostat and were fixed immediately in ice-cold acetone. All the sections were stained for haematoxylin–eosin (H&E) for critical analysis.

rat corneal tissues = conditions: confocal microscopy
[3] = tested on: expression of survivin, TGF-beta-1, alpha-SMA and collagen IV in alkali burnt cornea; assay: Ex vivo RT-PCR dose ranging in alkali burnt rat eyes; conditions: 1 M NaOH 1 min, treatment 40 min
Description: This procedure was carried out using a previously published protocol ([Lin et al., 2016]). Rat eyes were harvested from humanely killed rats and washed with HBSS. Rat eyes were further incubated with 1 M NaOH for 1 min and then treated with TSA ([…]), SurR9-C84A (0.5, 1.2, and 2.5 mg/kg), pSur/As-Sur ([…]) and empty plasmid (200, 400, and 800 μg/kg) for 40 min. Untreated eyes were maintained as controls. After treatment period, eyes were washed with PBS and total RNA was extracted using the TRIzol® reagent (cat# 15596-026, Thermo Fisher Scientific, Waltham, MA, USA), and complementary DNA (cDNA) was synthesized from RNA using the RevertAid H Minus First Strand cDNA Synthesis Kit (cat# K1631, Thermo Fisher Scientific). Expression of survivin, TGF-beta-1, alpha-SMA and collagen IV was determined by polymerase chain reaction (PCR).

Blood analysis = assay type: in vivo; design: HCT / MCH / WBC / RBC / HGB / MCHC: unit not given here; conditions: rat blood
Description: The analysis of blood samples was performed directly using the ABX Micros ES 60 (Horiba Medicals). The parameters analyzed included the number of red blood cells (RBC’s), white blood cells (WBC’s), platelets and hemoglobin content. Briefly, 20 μL of the blood sample was acquired in the instrument and the readings were recorded.

corneal lysate = assay: Multianalyte ELISA of inflammatory cytokines in corneal lysate; assay type: in vivo, rat
Description: The cytokine profiling was performed using the Rat Inflammatory Cytokines & Chemokines Multi-Analyte ELISArray Kit (QIAGEN, USA). Briefly, serial dilutions of the Antigen Standard and the experimental samples were prepared. 50 μL of Assay Buffer was added to each well of the 8-well ELISA strips. Fifty microliters samples and/or standards were added to the appropriate wells of the ELISA strips and incubated for 2 h at room temperature. The ELISA strips were further washed using 350 μL 1 × Washing Buffer thrice. Hundred microliters of Detection Antibody solution was added to the ELISA strips and incubated for 1 h at room temperature. ELISA wells were washed as mentioned above. Hundred microliters of the Avidin–HRP solution was added to all wells and incubated for 30 min at room temperature. ELISA wells were washed as mentioned above. Hundred microliters of Development Solution was added to each well and incubated for 15 min at room temperature in the dark. Hundred microliters of Stop Solution was added to each well. The color changed from blue to yellow. The absorbance at 450 nm was measured within 30 min of stopping the reaction. The estimation of pg/mL of cytokines was performed using the values obtained from antigen standards and a graph was plotted for the cytokine expression with the effect of treatments.

cornea = assay: Mean opacity and mean permeability measurements, rat alkali burn model; assay type: in vivo; conditions: 1 M NaOH 1 min, topical treatment 40 min
Description: The mean in vivo scores was determined using the mean opacity measurements. The rat eyes were excised carefully and carried to the laboratory in HBSS supplemented with penicillin/streptomycin. The measurement of mean opacity was carried out using an opacitometer which measures the transmission of light through the center of each mounted cornea. The mean permeability score was determined by adding a fluorescent (rhodamine solution) on the anterior side of the holder and the corneas were incubated in a horizontal position for 90 min at 32°C. The medium in the posterior chamber was removed and added to 96 well plates and the OD at 490 nm was read. The readings obtained at OD490 were used to determine the permeability of each treatment with respect to the change in the untreated corneas.

[4] = tested on: rat eyes post-alkali burn
[5] = 2 min after topical application in eye
[6] = 10 min after topical application in eye
[7] = 30 min after topical application in eye

CC(/C=C/C(=O)NO)=C\[C@@H](C)C(=O)c1ccc(N(C)C)cc1 [TSA, trichostatin A]
Concentration of TSA in Aqueous humor [1, 5]: 119.43 ± 37.92 ng/mL
Concentration of TSA in Conjunctiva [1, 5]: 267.88 ± 75.51 µg/g
Concentration of TSA in Cornea [1, 5]: 216.83 ± 78.05 µg/g
Concentration of TSA in Plasma [1, 5]: 103.61 ± 28.37 ng/mL
Concentration of TSA in Tear fluid [1, 5]: 333.42 ± 69.72 µg/g
Concentration of TSA in Aqueous humor [1, 6]: 112.94 ± 15.10 ng/mL
Concentration of TSA in Conjunctiva [1, 6]: 261.29 ± 66.47 µg/g
Concentration of TSA in Cornea [1, 6]: 291.02 ± 109.25 µg/g
Concentration of TSA in Plasma [1, 6]: 263.87 ± 80.96 ng/mL
Concentration of TSA in Tear fluid [1, 6]: 208.93 ± 30.82 µg/g
Concentration of TSA in Conjunctiva [1, 7]: 178.23 ± 35.22 µg/g
Concentration of TSA in Cornea [1, 7]: 762.86 ± 385.68 µg/g
Concentration of TSA in Plasma [1, 7]: 109.16 ± 33.00 ng/mL
Concentration of TSA in Tear fluid [1, 7]: 154.98 ± 73.25 µg/g
AUC0-8 ([1]; Aqueous humor): 7568 µg·h/g
AUC0-∞ ([1]; Aqueous humor): 7689 µg·h/g
Cmax ([1]; Aqueous humor): 11,046 ± 2734 μg/g
Tmax ([1]; Aqueous humor): 20 min
t1/2 ([1]; Aqueous humor): 90 min
AUC0-8 ([1]; Conjunctiva): 53.4 µg·h/g
Cmax ([1]; Conjunctiva): 26.26 ± 7.19 µg/g
Tmax ([1]; Conjunctiva): 5 min
t1/2 ([1]; Conjunctiva): 252 min
AUC0-8 ([1]; Cornea): 45.5 µg·h/g
AUC0-∞ ([1]; Cornea): 55.5 µg·h/g
Cmax ([1]; Cornea): 44.67 ± 12.91 µg/g
Tmax ([1]; Cornea): 5 min
t1/2 ([1]; Cornea): 210 min
AUC0-8 ([1]; Plasma): 65.5 µg·h/g
AUC0-∞ ([1]; Plasma): 68.4 µg·h/g
Cmax ([1]; Plasma): 160.3 ± 61.0 µg/g
Tmax ([1]; Plasma): 10 min
t1/2 ([1]; Plasma): 90 min
AUC0-8 ([1]; Tear fluid): 678.5 µg·h/g
AUC0-∞ ([1]; Tear fluid): 768.5 µg·h/g
Cmax ([1]; Tear fluid): 2,987 ± 1814 μg/g
Tmax ([1]; Tear fluid): 5 min
t1/2 ([1]; Tear fluid): 138 min
corneal tissue integrity (conjunctival layer, corneal matrix), H&E [2]: recovery of the conjunctival layer
alpha-SMA expression, immunofluorescence (rat corneal tissues): failed to downregulate it effectively
collagen type IV expression, immunofluorescence (rat corneal tissues): most effective in increasing
most effective dosage in inhibiting expression of survivin, alpha-SMA, TGF-beta-1 and collagen IV [3]: 0.02 mg/kg
enhancement of Fibronectin-1 expression, western blot (rat corneal lysates; post-NaOH insult): 1.97 fold
increase in TGF-beta-1 expression, western blot (rat corneal lysates; post-NaOH insult): 1.45 fold
decrease/downregulation of collagen type IV, western blot (rat corneal lysates; rat, in vivo, iv): 2.8 fold
HCT (Blood analysis): increased the HCT count to normal range
HGB (Blood analysis): 17.61 ± 1.41
MCH (Blood analysis): reduced to normal range
MCHC (Blood analysis): 38.15 ± 1.63
PLT (Blood analysis): 256.33 ± 117
RBC (Blood analysis): 8.15 ± 0.61
WBC (Blood analysis): 5.48 ± 2.06
MCV (Blood analysis; in fL (unit assumed)): 56.66 ± 1.86
HCT (Blood analysis; listed as NaOH–TSA): 46.2 ± 4.14
MCH (Blood analysis; listed as NaOH–TSA): 21.63 ± 1.01
GMCSF expression, ELISA (corneal lysate): downregulated effectively
IFN-gamma expression, ELISA (corneal lysate): significant downregulation
IL-1 beta expression, ELISA (corneal lysate): downregulation
IL-2 expression, ELISA (corneal lysate): significantly increased
IL-4 expression, ELISA (corneal lysate): increase
IL-6 expression, ELISA (corneal lysate): downregulated effectively
IL-12 expression, ELISA (corneal lysate): further downregulation
IL-13 expression, ELISA (corneal lysate): downregulated effectively
Rantes expression, ELISA (corneal lysate): significantly downregulated
TNF-alpha expression, ELISA (corneal lysate): downregulated effectively
Mean in vitro score (cornea): 0.20 ± 0.5^∗
Mean opacity measurement (cornea): 0.5 ± 0.2 ^∗
Predicted irritation potential (cornea): No irritation
Collagen type IV gene expression, qRT-PCR [4]: efficiently downregulated
Fibronectin-1 gene expression, qRT-PCR [4]: significantly enhanced
IL-1 beta gene expression, qRT-PCR [4]: increase
IL-6 gene expression, qRT-PCR [4]: significantly lowered
MMP-2 gene expression, qRT-PCR [4]: downregulating
TGF-beta-1 gene expression, qRT-PCR [4]: further increase
TNF-alpha gene expression, qRT-PCR [4]: significantly lowered
alpha-SMA gene expression, qRT-PCR [4]: significant increase
alpha-integrin 5 gene expression, qRT-PCR [4]: significant increase
